Data from ChEMBL document CHEMBL1201861, “Genomics of Drug Sensitity in Cancer screening data, Wellcome Trust Sanger Institute”.

Columns and labels:
LP-1 = test: cells; assay type: functional, cell-based; details: Homo sapiens;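 further: growth inhibition of human LP-1 cells, with the read-out taken from a cell viability assay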
Description: SANGER: Inhibition of human LP-1 cell growth in a cell viability assay.

GDM-1 = test: cells; assay type: functional, cell-based; details: Homo sapiens;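 further: cell viability readout used to measure growth inhibition of human GDM-1 cells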
Description: SANGER: Inhibition of human GDM-1 cell growth in a cell viability assay.

MDA-MB-134-VI = test: cells; assay type: functional, cell-based; details: Homo sapiens
Description: SANGER: Inhibition of human MDA-MB-134-VI cell growth in a cell viability assay.

MC-CAR = test: cells; assay type: functional, cell-based; details: Homo sapiens;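 further: growth inhibition of the human MC-CAR cell line, read out by a cell viability assay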
Description: SANGER: Inhibition of human MC-CAR cell growth in a cell viability assay.

Kasumi 1 = test: cells; assay type: functional, cell-based; details: Homo sapiens;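 further: growth inhibition of human Kasumi-1 cells, read out by a cell viability assay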
Description: SANGER: Inhibition of human KASUMI-1 cell growth in a cell viability assay.

ST486 = test: SANGER: Inhibition of human ST486 cell growth in a cell viability assay.; assay type: functional, cell-based
Raji = test: cells; assay type: functional, cell-based; details: Homo sapiens;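 further: cell viability assay measuring inhibition of Raji cell growth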
Description: SANGER: Inhibition of human Raji cell growth in a cell viability assay.

SKM-1 = test: SANGER: Inhibition of human SKM-1 cell growth in a cell viability assay.; assay type: functional, cell-based
BL-70 = test: SANGER: Inhibition of human BL-70 cell growth in a cell viability assay.; assay type: functional, cell-based
RL = test: cells; assay type: functional, cell-based; details: Homo sapiens
Description: SANGER: Inhibition of human RL cell growth in a cell viability assay.

YT = test: cells; assay type: functional, cell-based; details: Homo sapiens
Description: SANGER: Inhibition of human YT cell growth in a cell viability assay.

EW-12 = test: SANGER: Inhibition of human EW-12 cell growth in a cell viability assay.; assay type: functional, cell-based
BOKU = test: cells; assay type: functional, cell-based; details: Homo sapiens;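 further: growth inhibition of the human BOKU cell line, read out by a cell viability assay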
Description: SANGER: Inhibition of human BOKU cell growth in a cell viability assay.

TUR = test: cells; assay type: functional, cell-based; details: Homo sapiens;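 further: growth inhibition of human TUR cells, read out with a cell viability assay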
Description: SANGER: Inhibition of human TUR cell growth in a cell viability assay.

KMS-12-PE = test: cells; assay type: functional, cell-based; details: Homo sapiens;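 further: growth inhibition of human KMS-12-PE cells, measured with a cell viability assay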
Description: SANGER: Inhibition of human KMS-12-PE cell growth in a cell viability assay.

DG-75 = test: cells; assay type: functional, cell-based; details: Homo sapiens;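 further: growth inhibition of DG-75 cells, read out with a cell viability assay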
Description: SANGER: Inhibition of human DG-75 cell growth in a cell viability assay.

EVSA-T = test: cells; assay type: functional, cell-based, Homo sapiens; details: Homo sapiens, EVSA-T;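 further: growth inhibition of EVSA-T cells, read out with a cell viability assay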
Description: SANGER: Inhibition of human EVSA-T cell growth in a cell viability assay.

NCI-H128 = test: SANGER: Inhibition of human NCI-H128 cell growth in a cell viability assay.; assay type: functional, cell-based
LC4-1 = test: cells; assay type: functional, cell-based; details: Homo sapiens;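 further: growth inhibition of LC4-1 cells, read out with a cell viability assay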
Description: SANGER: Inhibition of human LC4-1 cell growth in a cell viability assay.

NCI-H2081 = test: cells; assay type: functional, cell-based; details: Homo sapiens;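 further: growth inhibition of human NCI-H2081 cells, read out with a cell viability assay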
Description: SANGER: Inhibition of human NCI-H2081 cell growth in a cell viability assay.

OPM-2 = test: cells; assay type: functional, cell-based; details: Homo sapiens;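 further: growth of OPM-2 cells measured with a viability assay, IC50 for suppression of proliferation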
Description: SANGER: Inhibition of human OPM-2 cell growth in a cell viability assay.

ECC4 = test: cells; assay type: functional, cell-based; details: Homo sapiens;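 further: growth inhibition of ECC4 cells, read out with a cell viability assay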
Description: SANGER: Inhibition of human ECC4 cell growth in a cell viability assay.

Daudi = test: cells; assay type: functional, cell-based; details: Homo sapiens;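 further: growth inhibition of Daudi cells, read out by a viability assay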
Description: SANGER: Inhibition of human Daudi cell growth in a cell viability assay.

EHEB = test: cells; assay type: functional, cell-based; details: Homo sapiens;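 further: growth inhibition of human EHEB cells, read out with a cell viability assay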
Description: SANGER: Inhibition of human EHEB cell growth in a cell viability assay.

MHH-CALL-2 = test: cells; assay type: functional, cell-based; details: Homo sapiens;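 further: growth inhibition of the cell line, read out in a cell viability assay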
Description: SANGER: Inhibition of human MHH-CALL-2 cell growth in a cell viability assay.

Compound	IC50 (LP-1) [nM]	IC50 (GDM-1) [nM]	IC50 (MDA-MB-134-VI) [nM]	IC50 (MC-CAR) [nM]	IC50 (Kasumi 1) [nM]	IC50 (ST486) [nM]	IC50 (Raji) [nM]	IC50 (SKM-1) [nM]	IC50 (BL-70) [nM]	IC50 (RL) [nM]	IC50 (YT) [nM]	IC50 (EW-12) [nM]	IC50 (BOKU) [nM]	IC50 (TUR) [nM]	IC50 (KMS-12-PE) [nM]	IC50 (DG-75) [nM]	IC50 (EVSA-T) [nM]	IC50 (NCI-H128) [nM]	IC50 (LC4-1) [nM]	IC50 (NCI-H2081) [nM]	other results
Cc1cc(Nc2cc(N3CCN(C)CC3)nc(Sc3ccc(NC(=O)C4CC4)cc3)n2)n[nH]1 [TOZASERTIB]	> 2000	> 2000	> 2000	> 2000	> 2000	231	> 2000	> 2000	390	> 2000	> 2000	> 2000	> 2000	> 2000	> 2000	> 2000	> 2000	> 2000	> 2000	> 2000	IC50 (OPM-2): > 2000 nM; IC50 (ECC4): > 2000 nM; IC50 (Daudi): > 2000 nM; IC50 (EHEB): > 2000 nM; IC50 (MHH-CALL-2): > 2000 nM
CN1CCN(CCOc2cc(OC3CCOCC3)c3c(Nc4c(Cl)ccc5c4OCO5)ncnc3c2)CC1 [SARACATINIB]	> 2000	> 2000	> 2000	> 2000	> 2000	1460	> 2000	> 2000	> 2000	> 2000	> 2000	> 2000	> 2000	> 2000	> 2000	> 2000	> 2000	> 2000	> 2000	> 2000	IC50 (OPM-2): > 2000 nM; IC50 (ECC4): > 2000 nM; IC50 (Daudi): > 2000 nM; IC50 (EHEB): > 2000 nM; IC50 (MHH-CALL-2): > 2000 nM
CO[C@H]1C[C@@H]2CC[C@@H](C)[C@@](O)(O2)C(=O)C(=O)N2CCCC[C@H]2C(=O)O[C@H]([C@H](C)C[C@@H]2CC[C@@H](O)[C@H](OC)C2)CC(=O)[C@H](C)/C=C(\C)[C@@H](O)[C@@H](OC)C(=O)[C@H](C)C[C@H](C)/C=C/C=C/C=C/1C [SIROLIMUS]	> 100	> 100	44	> 100	> 100	> 100	89.7	> 100	28.4	> 100	> 100	> 100	> 100	> 100	> 100	> 100	> 100	> 100	86.7	> 100	IC50 (OPM-2): 4.15 nM; IC50 (ECC4): 44.8 nM; IC50 (Daudi): 0.434 nM; IC50 (EHEB): > 100 nM; IC50 (MHH-CALL-2): > 100 nM
CCC(=O)N1CCN(c2ccc(-n3c(=O)ccc4cnc5ccc(-c6cnc7ccccc7c6)cc5c43)cc2C(F)(F)F)CC1 [TORIN1]	89.4	372	143	554	> 1200	106	> 1200	> 1200	3.37	> 1200	> 1200	> 1200	372	> 1200	> 1200	262	8.92	> 1200	87.4	> 1200	IC50 (OPM-2): 12.9 nM; IC50 (ECC4): 1190 nM; IC50 (Daudi): 42.3 nM; IC50 (EHEB): 512 nM; IC50 (MHH-CALL-2): 335 nM
